Test results published in US11426422B2, “SHP2 inhibitors and methods of use thereof” (Research Development Foundation, priority 2018, dated 2022).

Key:
[1] = system: HFD-fed mice; experiment: glucose tolerance test in HFD-fed mice; assay type: in vivo; settings: 60 mg/kg daily oral gavage for 6 days; male mice fed HFD 5 weeks; 14 h fasted
Protocol: (§1) (FIG. 3A) Glucose tolerance test in 14 h fasted male mice fed a HFD for 5 weeks. […] At 1 day after drug treatment, glucose tolerance test was performed. Mean±SEM. (FIG. 3B) Insulin tolerance test of mice treated as described in FIG. 3A. Mean±SEM. […] The liver sections were stained with anti-IR (red) and DAPI (blue). Scale bars, 5 μm. (FIG. 3D) Quantification of the ratios of PM and IC IR signals of the livers in C (mean±SD; *p<0.0001). […] Cell lysates were blotted with the indicated antibodies.
(§2) The IR staining at the PM in liver sections from mice fed with HFD was weak, and insulin stimulation further reduced it and caused IR endocytosis (FIGS. 3C and D).
(§3) All animals were maintained in a specific antigen-free barrier facility with 12 h light/dark cycles (6 AM on and 6 PM off). Mice were fed a standard rodent chow (2016 Teklad Global 16% protein rodent diet, Harlan Laboratories). […] For glucose tolerance test, mice were fasted for 14 h, and their blood glucose levels (T=0) were measured with tail bleeding using a glucometer (AlphaTRAK®). […] Blood glucose levels were measured at 15, 30, 60, and 120 min after glucose injection. For insulin tolerance test, mice fasted for 4 h were injected intraperitoneally with recombinant human insulin (Eli Lilly) at 1 U/kg body weight, and their blood glucose levels were measured at 0, 15, 30 and 60 min after injection.

[2] = system: HFD-fed mice; experiment: insulin tolerance test in HFD-fed mice; assay type: in vivo; settings: 60 mg/kg daily oral gavage for 6 days; male mice fed HFD 5 weeks; insulin 1 U/kg
Protocol: as §1, §2, §3

[3] = body weight of HFD-fed mice; assay type: in vivo; settings: 60 mg/kg daily oral gavage; 7 days post administration
Protocol: FIGS. 8A-B. Effects of the SHP2 inhibitor on body weight and insulin signaling in HFD-WT mice. […] Mean±SD. (FIG. 8B) Quantification of the relative band intensities in FIG. 3E. Mean±SD; n=3 independent experiments.
as §2
as §3, with “Laboratories). For inducing insulin resistance, C57BL/6J (Stock No. 000664, Jackson laboratory) were fed a high-fat (60%) diet (OpenSource Diets, Cat. No. D12492). For in vivo pharmacological assays, 6-8-weeks-old male mice were fed high-fat diet (HFD) for 5 weeks. Two days before drug administration, mice were switched to normal chow.” for “Laboratories).”

[4] = system: HepG2 cells expressing IR-GFP mutants; experiment: cellular localization of IR-GFP mutants in HepG2 cells after inhibitors; assay type: cell-based; settings: starved 14 h, inhibitors 4 h, no insulin
Description: FIGS. 4A-E. Dysregulation of IR endocytosis as a potential contributing factor to human insulin resistance syndromes. (FIG. 4A) Representative images of liver specimens from human non-diabetes and diabetes patients stained with DAPI (blue) and anti-IR (red) and anti-ZO-1 (green) antibodies. Scale bars, 40 μm. (FIG. 4B) Quantification of the percentage of cells with positive IR PM signals in liver specimens in FIG. 4A (mean±SD; *p<0.0001). (FIG. 4C) HepG2 cells stably expressing IR-GFP R1020Q, V1054M, A1075D, V1086E, or I1143T were serum starved and stained with anti-GFP and anti-RAB7 antibodies. Scale bar, 5 μm. (FIG. 4D) Quantification of the ratios of PM and IC IR-GFP signals of cells in FIG. 4C (mean±SD; *p<0.0001). (FIG. 4E) Targeting feedback regulation of IR endocytosis for diabetes treatment. Left panel depicts the feedback regulation of IR endocytosis by ERK1/2 and SHP2 during unperturbed insulin signaling.
FIGS. 9A-D. Characterization of IR mutations found in human patients. (FIG. 9A) HepG2 cells expressing IR-GFP Class I mutants (P997T, V1012M, A1055V, K1095E, R1119Q, H1157R, R1191Q, Y1361C, or R1378Q) were starved for 14 h, treated with the indicated inhibitors for 4 h, and stained with anti-GFP (IR; green) and DAPI (blue). Scale bar, 5 m. (FIG. 9B) HepG2 cells expressing IR-GFP Class II mutants (R1020Q, V1054M, A1075D, V1086E, or I1143T) were analyzed as described in FIG. 9A. (FIG. 9C) HepG2 cells expressing IR-GFP Class III mutants (A1162E or W1220L) were analyzed as described in A. (FIG. 9D) HepG2 cells expressing IR-GFP WT, R1020Q, or V1054M were serum starved for 14 h and treated with DMSO or 80 μM Dynasore for 4 h. Cell lysates were blotted with the indicated antibodies.
Mutations of IR are known to cause inherited severe insulin resistance syndromes, but the mechanisms by which these mutations affect IR function have not been systematically explored. HepG2 cell lines were generated which stably expressed IR mutants fused to GFP, and the subcellular localization of these IR-GFP proteins was examined (FIGS. 9A-C and Table 1).
There were three distinct classes of IR mutants based on their subcellular localization in the unstimulated state. Class I mutants localized to the PM. […] Thus, certain IR mutations found in human insulin resistance syndromes perturbs IR kinase regulation and causes premature IR endocytosis.
Cellular localization of IR mutants was examined after inhibiting the SHP2 or MAPK pathways (FIGS. 4C-D, and FIGS. 9A-C).
Indirect immunofluorescence microscopy was performed on cells grown on coverslips and fixed in cold methanol at −20° C. for 10 min. The fixed cells were incubated with PBS for 30 min and 3% BSA in 0.1% PBST for 1 h, and then treated with diluted antibodies in 0.3% BSA in 0.1% PBST at 4° C. overnight. After being washed, cells were incubated with fluorescent secondary antibodies and mounted on microscope slides in ProLong Gold Antifade reagent with DAPI (Invitrogen). Images of fixed cells were acquired as a series of 0.4 m stacks with a DeltaVision® system (Applied Precision®, Issaquah, Wash.). Raw images were deconvolved using the iterative algorithm implemented in the softWoRx® software (Applied Precision®, Issaquash, Wash.). The central section of a 0.4 μm z-stack containing 3 contiguous focal planes was used for quantification. The cell edges were defined with Image J. The whole cell signal intensity (WC) and intracellular signal intensity (IC) were measured. The plasma membrane signal intensity (PM) was calculated by subtracting IC from WC. Identical exposure times and magnifications were used for all comparative analyses.

CC1(N)CCN(c2cnc(-c3cccc(Cl)c3Cl)c(N)n2)CC1 [SHP099]
glucose tolerance [1]: markedly increased glucose tolerance
insulin sensitivity [2]: markedly increased
body weight [3]: did not change the body weight
PM levels of Class I and III IR mutants [4]: not those of Class I and III IR mutants
PM levels of Class II IR mutants ([4]; R1020Q, V1054M, A1075D, V1086E, I1143T): significantly enhanced the PM levels of Class II IR mutants
